In patent publication US6831190B1, “Guanidinomethyl cyclohexane carboxylic acid ester derivatives” (Teikoku Chemical Industries Co., Ltd., priority 1994, dated 2004):
Values after ≈ are worked out from the molar mass of the structure shown. Where two headings read alike, the source gives them in different places.

Legend:
Assay type in all cases: cell-based
[1] = test system: Helicobacter pylori ATCC 43504; test: MIC, agar plating dilution (standard method of Japanese Chemotherapy Academy)
Description: (§1) 1. Minimum Inhibitory Concentration (MIC) was measured in accordance with the standard method of Japanese Chemotherapy Academy (Chemotherapy, 29: 76-79, 1981). Sensitivity was measured with an agar plating dilution using Brain-Heart Infusion agar (Difco Co.) which was added 0.1% of cyclodextrin. […] of the solutions of the compounds which were obtained in examples of the present invention was prepared by dissolving in dimethylsulfoxide. […] Each of 1 ml of those prepared solutions was dispensed in share, after sterilization, 9 ml of sensitivity measuring medium which is kept at 50° C. was added to each, and they were sufficiently mixed. The mixture was used as a plate for measuring sensitivity. Brain Heart Infusion agar medium (Difco Co.), which was added 0.1% of cyclodextrin, was used as bacteria growing medium, and was cultured under microair at 37° C. for three days, and the number of bacteria thereof was adjusted to about 106/ml. This was used as a bacterial solution for inoculation. The medium was painted in each square about 2 cm with nichromic line loop. The medium was cultured under microair for three days at 37° C.

[2] = test system: Helicobacter pylori ATCC 43629; test: as above
Description: as §1

[3] = test system: Staphylococcus aureus ATCC 6538; test: MIC, standard method of Japanese Chemotherapy Academy; details: Strain 12: Staphylococcus aureus ATCC 6538
Description: (§2) 1. Minimum Inhibitory Concentration (MIC) was measured in accordance with the standard method of Japanese Chemotherapy Academy (Chemotherapy, 29: 76-79, 1981).
(§3) And MIC of the compounds of Example 3, 36, 8, 14, 17, 21, 41 and 45 were measured.

[4] = test system: Staphylococcus aureus 209PJC; test: as above; details: Strain 11: Staphylococcus aureus 209PJC
Description: as §2, §3

[5] = test system: Bacillus subtilis ATCC 6633; test: as above; details: for MIC: Strain 13: Bacillus subtilis ATCC 6633; for MIC against bacillus subcillus ATCC 6633: standard method of Japanese Chemotherapy Academy
Description: as §2, §3

[6] = test system: Staphylococcus aureus No. 2 (MRSA); test: as above; details: Strain 14: Staphylococcus aureus No. 2 (MRSA)
Description: as §2, §3

[7] = test system: Helicobacter pylori No. 2; test: MIC, agar plating dilution, clinical segregation strain
Description: (§4) Minimum Inhibitory Concentration (MIC) was measured in accordance with the standard method of Japanese Chemotherapy Academy (Chemotherapy, 29: 76-79, 1981). Sensitivity was measured with an agar plating dilution using Brain-Heart Infusion agar (Difco Co.) which was added 0.1% of cyclodextrin. […] of the solutions of the compounds which were obtained in examples of the present invention was prepared by dissolving in dimethylsulfoxide. […] Each of 1 ml of those prepared solutions was dispensed in share, after sterilization, 9 ml of sensitivity measuring medium which is kept at 50° C. was added to each, and they were sufficiently mixed. The mixture was used as a plate for measuring sensitivity. Brain Heart Infusion agar medium (Difco Co.), which was added 0.1% of cyclodextrin, was used as bacteria growing medium, and was cultured under microair at 37° C. for three days, and the number of bacteria thereof was adjusted to about 106/ml. This was used as a bacterial solution for inoculation. The medium was painted in each square about 2 cm with nichromic line loop. The medium was cultured under microair for three days at 37° C. […] The each result is shown at Table 4.

[8] = test system: Helicobacter pylori No. 4; test: as above
Description: as §4

[9] = test system: Helicobacter pylori No. 1; test: as above
Description: as §4

[10] = test system: Helicobacter pylori No. 20; test: as above
Description: as §4

[11] = test system: Helicobacter pylori No. 19; test: as above
Description: as §4

[12] = test system: Helicobacter pylori No. 3; test: as above
Description: as §4

[13] = test system: Helicobacter pylori No. 28; test: as above
Description: as §4

[14] = test system: Escherichia coli NIH JC-2; test: MIC, standard method of Japanese Chemotherapy Academy; details: Objected Strain 3: Escherichia coli NIH JC-2
Description: as §2

[15] = Objected Strain 1: Helicobacter pylori ATCC 43504
[16] = Objected Strain 2: Helicobacter pylori ATCC 43629
[17] = Strain 5: Helicobacter pylori No. 2
[18] = Strain 7: Helicobacter pylori No. 4
[19] = Strain 4: Helicobacter pylori No. 1
[20] = Strain 6: Helicobacter pylori No. 3
[21] = Strain 9: Helicobacter pylori No. 20
[22] = Strain 8: Helicobacter pylori No. 19
[23] = Strain 10: Helicobacter pylori No. 28

Compound	MIC [14]	MIC [1, 15]	MIC [2, 16]	MIC [3]	MIC [4]	MIC [5]	MIC against bacillus subcillus ATCC 6633 [5]	MIC [6]	MIC [7, 17]	MIC [8, 18]	MIC [9, 19]	MIC [12, 20]	MIC [10, 21]	MIC [11, 22]	MIC [13, 23]	also measured
CC1(C)S[C@@H]2[C@H](NC(=O)[C@H](N)c3ccc(O)cc3)C(=O)N2[C@H]1C(=O)O [Amoxicillin, amoxicillin, reference compound]	–	–	–	–	–	–	–	–	–	–	–	–	–	–	–	MIC ([1]; ATCC43504, Objected Strain 1: Helicobacter pylori ATCC 43504, read-out: MIC): 0.05 µg/mL (≈ 0.137 µM); MIC ([2]; ATCC43629, Objected Strain 2: Helicobacter pylori ATCC 43629, read-out: MIC): 0.025 µg/mL (≈ 0.0684 µM); MIC ([3]; ATCC6538, read-out: MIC): 0.05 µg/mL (≈ 0.137 µM); MIC ([4]; read-out: MIC): 0.1 µg/mL (≈ 0.274 µM); MIC ([5]; ATCC6633, read-out: MIC): 0.05 µg/mL (≈ 0.137 µM); MIC ([6]; read-out: MIC): 0.2 µg/mL (≈ 0.547 µM); MIC ([7]; Strain 5: Helicobacter pylori No. 2, read-out: MIC): 0.1 µg/mL (≈ 0.274 µM); MIC ([8]; Strain 7: Helicobacter pylori No. 4, read-out: MIC): 0.05 µg/mL (≈ 0.137 µM); MIC ([9]; Strain 4: Helicobacter pylori No. 1, read-out: MIC): 0.1 µg/mL (≈ 0.274 µM); MIC ([10]; Strain 9: Helicobacter pylori No. 20, read-out: MIC): 0.025 µg/mL (≈ 0.0684 µM); MIC ([11]; Strain 8: Helicobacter pylori No. 19, read-out: MIC): 0.025 µg/mL (≈ 0.0684 µM); MIC ([12]; Strain 6: Helicobacter pylori No. 3, read-out: MIC): 0.025 µg/mL (≈ 0.0684 µM); MIC ([13]; Strain 10: Helicobacter pylori No. 28, read-out: MIC): 0.05 µg/mL (≈ 0.137 µM)
Cl.N=C(N)NC[C@H]1CC[C@H](C(=O)Oc2ccc(-c3ccc(C(=O)OCc4ccccc4)cc3)cc2)CC1 [Example 3, trans-4-guanidinomethyl cyclohexane carboxylic acid [4-(4-benzyloxycarbonylphenyl)phenylester].hydrochloride]	>25 µg/mL	0.78 µg/mL	0.39 µg/mL	6.25 µg/mL	3.13 µg/mL	25 µg/mL	> 25 µg/mL	3.13 µg/mL	0.39 µg/mL	0.39 µg/mL	0.20 µg/mL	0.10 µg/mL	–	–	–	–
Cl.N=C(N)NC[C@H]1CC[C@H](C(=O)Oc2ccc(-c3ccc(Cl)cc3)cc2)CC1 [Example 8, trans-4-guanidinomethyl cyclohexane carboxylic acid [4-(4-chlorophenyl)phenylester].hydrochloride]	>25 µg/mL	0.78 µg/mL	0.39 µg/mL	1.56 µg/mL	0.78 µg/mL	6.25 µg/mL	–	1.56 µg/mL	0.39 µg/mL	0.39 µg/mL	0.10 µg/mL	0.10 µg/mL	0.39 µg/mL	0.20 µg/mL	0.39 µg/mL	–
CC(C)(C)c1ccc(COC(=O)c2ccc(-c3ccc(OC(=O)[C@H]4CC[C@H](CNC(=N)N)CC4)cc3)cc2)cc1.Cl [Example 17, trans-4-guanidinomethyl cyclohexane carboxylic acid [4-[4-(4-t-butylbenzyloxy carbonyl)phenyl]phenylester].hydrochloride]	>25 µg/mL	0.78 µg/mL	0.39 µg/mL	>25 µg/mL	>25 µg/mL	>25 µg/mL	> 25 µg/mL	>25 µg/mL	0.39 µg/mL	0.20 µg/mL	0.20 µg/mL	0.20 µg/mL	–	–	–	–
Cl.N=C(N)NC[C@H]1CC[C@H](C(=O)Oc2ccc(-c3ccc(C(=O)OCc4ccc(C(F)(F)F)cc4)cc3)cc2)CC1 [Example 21, trans-4-guanidinomethyl cyclohexane carboxylic acid [4-[4-(4-trifuluoromethyl benzyloxycarbonyl)phenyl]phenylester].hydrochloride]	>25 µg/mL	0.39 µg/mL	0.78 µg/mL	>25 µg/mL	25 µg/mL	>25 µg/mL	> 25 µg/mL	>25 µg/mL	0.39 µg/mL	0.39 µg/mL	0.20 µg/mL	0.10 µg/mL	–	–	–	–
Cc1ccccc1COC(=O)c1ccc(-c2ccc(OC(=O)[C@H]3CC[C@H](CNC(=N)N)CC3)cc2)cc1.Cl [Example 43, trans-4-guanidinomethyl cyclohexane carboxylic acid[4-[4-(2-methylbenzyloxycarbonyl)phenyl]phenylester].hydrochloride]	>25 µg/mL	0.20 µg/mL	0.39 µg/mL	–	–	–	–	–	0.20 µg/mL	0.78 µg/mL	0.20 µg/mL	0.20 µg/mL	0.39 µg/mL	0.10 µg/mL	0.39 µg/mL	–
Cc1cccc(COC(=O)c2ccc(-c3ccc(OC(=O)[C@H]4CC[C@H](CNC(=N)N)CC4)cc3)cc2)c1.Cl [Example 44, trans-4-guanidinomethyl cyclohexane carboxylic acid[4-[4-(3-methylbenzyloxycarbonyl)phenyl]phenylester].hydrochloride]	>25 µg/mL	0.20 µg/mL	0.20 µg/mL	–	–	–	–	–	0.39 µg/mL	0.78 µg/mL	0.39 µg/mL	0.20 µg/mL	0.20 µg/mL	0.20 µg/mL	0.39 µg/mL	–
Cl.N=C(N)NC[C@H]1CC[C@H](C(=O)Oc2ccc(-c3ccc(C(=O)OCCc4ccc(Cl)cc4)cc3)cc2)CC1 [Example 45, trans-4-guanidinomethyl cyclohexane carboxylic acid[4-[4-[2-(4-chlorophenyl)ethyloxycarbonyl)phenyl]phenylester].hydrochloride]	>25 µg/mL	0.39 µg/mL	0.39 µg/mL	>25 µg/mL	>25 µg/mL	>25 µg/mL	–	>25 µg/mL	0.39 µg/mL	3.13 µg/mL	0.39 µg/mL	0.39 µg/mL	0.20 µg/mL	0.20 µg/mL	0.39 µg/mL	–
Cc1ccc(CCOC(=O)c2ccc(-c3ccc(OC(=O)[C@H]4CC[C@H](CNC(=N)N)CC4)cc3)cc2)cc1.Cl [Example 46, trans-4-guanidinomethyl cyclohexane carboxylic acid[4-[4-[2-(4-methylphenyl)ethyloxycarbonyl)phenyl]phenylester].hydrochloride]	>25 µg/mL	0.78 µg/mL	0.78 µg/mL	–	–	–	–	–	0.39 µg/mL	3.13 µg/mL	0.39 µg/mL	0.20 µg/mL	0.20 µg/mL	0.39 µg/mL	0.39 µg/mL	–
CC1COc2c(N3CCN(C)CC3)c(F)cc3c(=O)c(C(=O)O)cn1c23 (stereo not shown) [Ophroxacine, ophroxacine, reference compound]	0.10 µg/mL (≈ 0.277 µM)	0.78 µg/mL (≈ 2.16 µM)	0.78 µg/mL (≈ 2.16 µM)	0.10 µg/mL (≈ 0.277 µM)	0.39 µg/mL (≈ 1.08 µM)	0.10 µg/mL (≈ 0.277 µM)	–	12.5 µg/mL (≈ 34.6 µM)	12.5 µg/mL (≈ 34.6 µM)	0.78 µg/mL (≈ 2.16 µM)	0.78 µg/mL (≈ 2.16 µM)	25.0 µg/mL (≈ 69.2 µM)	0.78 µg/mL (≈ 2.16 µM)	0.78 µg/mL (≈ 2.16 µM)	1.56 µg/mL (≈ 4.32 µM)	–
